Where “and” joins values, the source holds several entries; their conditions need not be identical. Identical values can stand only once.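 Dose response: 5 concentrations. Exposure: 48 h. Format: 96-well plates. Endpoint: linear interpolation; highest concentration if not reached. GI50 = concentration required for 50% inhibition of growth. Definition used: TGI = concentration required for complete inhibition of growth.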
What was measured:
Test in all cases: DTP human tumour cell line panel, 48 h
786-0 renal = test system: 786-0 renal
HCC-2998 colon = test system: HCC-2998 colon
K-562 leukemia = test system: K-562 leukemia
M14 melanoma = test system: M14 melanoma
SR leukemia = test system: SR leukemia
SW-620 colon = test system: SW-620 colon
UACC-257 melanoma = test system: UACC-257 melanoma
UACC-62 melanoma = test system: UACC-62 melanoma
UO-31 renal = test system: UO-31 renal
MCF7 breast = test system: MCF7 breast

Row | SMILES | TGI (786-0 renal) | TGI (HCC-2998 colon) [µM] | TGI (K-562 leukemia) | TGI (M14 melanoma) | TGI (SR leukemia) [µM] | TGI (SW-620 colon) | TGI (UACC-257 melanoma) | TGI (UACC-62 melanoma) | TGI (UO-31 renal) [µM] | GI50 (786-0 renal) [µM] | GI50 (K-562 leukemia) [µM] | GI50 (M14 melanoma) [µM] | GI50 (MCF7 breast) [µM] | TGI (MCF7 breast) [µM] | GI50 (SR leukemia) [µM] | GI50 (SW-620 colon) [µM] | GI50 (UACC-257 melanoma) | GI50 (UACC-62 melanoma) [µM] | GI50 (UO-31 renal) [µM] | GI50 (HCC-2998 colon) [µM]
1 | COC(=O)C1=CO[C@@H](OC2CC(CO)C(O)C(O)C2O)[C@@H]2[C@@H](C)[C@@H](OC(=O)/C=C/c3ccccc3)[C@@H](O)[C@H]12 (some centres not stated) (tested in a mixture with another compound) | > 100 µM | > 100 | > 100 µM | > 100 µM | > 100 | > 100 µM | > 100 µM | > 100 µM | > 100 |  |  |  |  |  |  |  |  |  |  | 
2 | Nc1ncnc2c1ncn2C1OC(CSCC(F)(F)F)C(O)C1O (configuration not stated) | > 100 µM | > 100 | > 100 µM | > 100 µM | > 100 | > 100 µM | > 100 µM | > 100 µM | > 100 |  |  |  |  |  |  |  |  |  |  | 
3 | CC(=O)c1c(C(F)(F)F)n([O-])c2ccccc2[n+]1=O | 15.3 µM |  | > 100 µM | 7.47 µM | 2.3 | 13.3 µM | 13.6 µM | 3.02 µM | 12.1 | 2.86 | 1.26 | 1.63 | 0.873 | 4.08 | 0.167 | 1.57 | 2.77 µM | 0.7 | 2.69 | 
4 | Cc1c(/C=N/NC(=O)c2ccccc2O)c(=O)n(-c2ccccc2)n1C | > 100 µM | > 100 | > 100 µM | > 100 µM | > 100 | > 100 µM | > 100 µM | > 100 µM | > 100 |  |  |  |  |  |  |  |  |  |  | 
5 | CC(=O)Nc1ccc(-c2cc(C(=O)O)c3cc4ccccc4cc3n2)cc1 | > 100 µM |  | > 100 µM | > 100 µM | > 100 | > 100 µM | > 100 µM | > 100 µM |  |  |  |  |  | > 100 |  |  |  |  |  | 
6 | O=c1ncccn1[C@@H]1O[C@H](CO)[C@H](O)C1O (some centres not stated) | > 100 µM | > 100 | > 100 µM | > 100 µM | > 100 | > 100 µM | > 100 µM | > 100 µM | > 100 |  |  |  |  |  |  |  |  |  |  | 
7 | COC(=O)/C(=N\NC(C)(C)C)C(C(=O)OC)C(=O)C(=O)Nc1cc(Cl)ccc1Cl (configuration not stated) | > 100 µM | > 100 | > 100 µM | > 100 µM | > 100 | > 100 µM | > 100 µM | > 100 µM | > 100 |  |  |  |  |  |  |  |  |  |  | 
8 | O=C(/C=C/c1ccccc1)Oc1cccc2cccnc12 | > 100 µM | > 100 | > 100 µM | 14.8 µM | > 100 | 21.9 µM | 18.2 µM | 27.1 µM | > 73 |  |  |  |  |  |  |  |  |  |  | 
9 | CC(=O)OCc1c2ccccc2c(C)c2c1cc(F)c1ccccc12 | 82.3 µM | 72.3 | 78.9 µM | > 100 µM | > 100 | 67.3 µM | > 100 µM | 43.6 µM | > 100 |  |  |  |  |  |  |  |  |  |  | 
10 | COc1ccc(-c2noc(C(=O)O)c2-c2cc(OC)c(OC)c(OC)c2)cc1 | > 100 µM | > 100 | > 100 µM |  | > 100 | > 100 µM | > 100 µM | > 100 µM | > 100 | 4.85 | 0.609 |  | 1.34 | > 100 | 0.402 | 1.53 | > 100 µM | 11.1 | 5.45 | 5.75
11 | Cc1cc2c(C)nn(Cc3ccccc3)c2c(C(=O)O)c1C | > 100 µM | > 100 |  |  | > 100 | > 100 µM | > 100 µM | > 100 µM | > 100 |  |  |  |  |  |  |  |  |  |  | 
12 | CC1=C(C(=O)Nc2ccccc2C)C(c2ccc(Cl)cc2)C(C(=O)Nc2ccccc2C)=C(C)N1 | > 100 µM | > 100 | > 100 µM | > 100 µM | > 100 | > 100 µM | > 100 µM | > 100 µM | > 100 |  |  |  |  |  |  |  |  |  |  | 
13 | O=C1CC(CC(=O)C2CCCCC2=O)C(=O)N1 (configuration not stated) | > 100 µM | > 100 | > 100 µM | > 100 µM | > 100 | > 100 µM | > 100 µM | > 100 µM | > 100 |  |  |  |  |  |  |  |  |  |  | 
14 | IC[P+]1(c2ccccc2)CCCC1 | > 100 µM | > 100 | > 100 µM | > 100 µM | > 100 | > 100 µM | > 100 µM | > 100 µM | > 100 |  |  |  |  |  |  |  |  |  |  | 
15 | N=C1C(O)C2(I)c3ccccc3N3C(=N)C(O)C4c5ccccc5N1C4C32 (configuration not stated) | > 100 µM |  | > 100 µM | > 100 µM | > 100 | > 100 µM | > 100 µM | > 100 µM | > 100 |  |  |  |  | > 100 |  |  |  |  |  | 
16 | Cc1nc(C(N)=O)c(N)n1CCN1CCN(C(=O)CCCCCCCCCCNC2N=CNc3nc[nH]c32)CC1 (configuration not stated) | > 100 µM | > 100 | > 100 µM | 82.8 µM | 43.3 | > 100 µM | 45.7 µM | > 100 µM | > 100 |  |  |  |  |  |  |  |  |  |  | 
17 | O=C(COc1ccccc1Cl)N1N=C(c2ccc(Cl)cc2)CC1(O)c1ccccc1 (configuration not stated) | > 100 µM | > 100 | > 100 µM | > 100 µM | > 100 | > 100 µM | > 100 µM | > 100 µM | > 100 |  |  |  |  |  |  |  |  |  |  | 
18 | O=c1cc(-c2cccs2)[nH]c2cc3c(cc12)OCO3 | > 41.3 µM | > 51.6 | > 100 µM | > 100 µM | > 100 | > 100 µM | > 100 µM | > 25 µM | > 100 |  |  |  |  |  |  |  |  |  |  | 
19 | CC(=O)c1c(O)c(C)c(O)c(Cc2c(O)c3c(c(C(=O)/C=C/c4ccccc4)c2O)OC(C)(C)C=C3)c1O | 18.7 µM | 11.1 | 14.7 µM | 18.4 µM |  | 14.8 µM | 7.16 µM | 10 µM | 8.19 |  |  |  |  | 19.9 |  |  |  |  |  | 
20 | O=S(=O)(/N=c1\scc(-c2ccccc2)n1-c1ccccc1)c1ccc(N2N=C3c4ccccc4CC3C2c2ccc(Cl)cc2)cc1 (configuration not stated) | > 100 µM |  | 55.5 µM | > 100 µM | 45.9 | > 100 µM | > 100 µM | > 100 µM | > 100 | 32.7 | 20 | > 100 | > 100 | > 100 | 17.3 | 35 | 83.5 µM | 32.7 | 45.4 | 
21 | Cn1ccnc1CCc1c(Cl)cccc1Cl | > 100 µM |  | > 100 µM | > 100 µM | > 100 | > 100 µM | > 100 µM | > 100 µM | > 100 |  |  |  |  |  |  |  |  |  |  | 
22 | O=C1C2C3C=C4c5ccccc5N(c5ccccc5)C4(C2C(=O)N1c1ccccc1)C1C(=O)N(c2ccccc2)C(=O)C31 (configuration not stated) | > 100 µM | > 100 | > 100 µM | > 100 µM | > 100 | > 100 µM | > 100 µM |  | > 100 |  |  |  |  |  |  |  |  |  |  | 
23 | COc1cccc(-c2nc3cc(NC(=O)c4ccc(Cl)c(C#N)c4)ccc3o2)c1 | 3.33 µM |  | > 100 µM |  | > 100 | > 100 µM | > 100 µM | > 100 µM | > 100 | 1.74 | 2.69 |  |  |  | 35.1 | 4.11 | 3.81 µM | 3.29 | 3.95 | 
24 | C=C(c1ccccc1)C1(O)CCCCC1N (configuration not stated) | > 100 µM | > 100 | > 100 µM | > 100 µM | 72.8 | > 100 µM | > 100 µM | > 100 µM | > 100 |  |  |  |  |  |  |  |  |  |  | 
25 | COc1ccc2c(c1)C(=O)/C(=C/c1cccc(OCC(=O)c3ccccc3)c1)CC2 | > 100 µM | > 100 | 5.82 µM | > 100 µM |  | > 100 µM | > 100 µM | > 100 µM | > 100 | 54.4 | 1.98 | 16.7 | 4.53 | > 100 |  | 4.88 | 8.56 µM | 12.8 | 29.2 | 25.8
26 | Cc1ccc(S(=O)(=O)SC/C=C\CSS(=O)(=O)c2ccc(C)cc2)cc1 | > 66.2 µM and 32.3 µM | > 100 | 25.2 µM and 64.9 µM | 68.6 µM and 33.5 µM |  | 74.2 µM and 29.8 µM | > 56.2 µM and 45.1 µM | > 79.9 µM and 45.5 µM | > 100 |  |  |  |  | > 77.2 |  |  | 42.3 µM and 20.8 µM |  |  | 
27 | c1cc[c]([Sn][c]2ccccc2)cc1 | 31.6 µM | 18.3 | 69 µM | 56.7 µM | 45.3 | 45 µM | > 72.9 µM | 47 µM | 38.5 | 17.4 | 25.2 | 24.4 |  |  | 18.6 | 21.6 | 29.6 µM | 21 | 19.4 | 13.8
28 | COc1cc(Cl)cc(=O)c(O)c1OC | > 100 µM | > 100 | > 100 µM | > 100 µM | > 100 |  | > 100 µM | 70.7 µM | > 100 |  |  |  |  |  |  |  |  |  |  | 
29 | Clc1ccc(-c2cn3ccnc3c(-c3ccc(Cl)cc3)n2)cc1 | > 100 µM |  | > 100 µM | 84.7 µM | 4.02 | > 100 µM | 33.9 µM | > 100 µM |  | 29.5 | 2.25 | 13.7 | 11.4 | > 100 |  | 7.42 | 2.58 µM | 36.2 |  | 
